The numbers were not newly measured in PMC10360060, “Electroosmotic Perfusion, External Microdialysis: Simulation and Experiment” (ACS Chemical Neuroscience, 2023), which cites them from elsewhere.

Like-named read-outs stand apart in the source and are kept apart here.

Data set [1] concerns insulin regulated aminopeptidase (IRAP). The following applies: perfusion of inhibitor in rat neocortex in vivo, online capillary LC-MS2. An excerpt: Following our discovery that brain tissue has a significant ζ-potential,[36] we learned how to use this property of brain tissue to infuse solutes into brain and organotypic hippocampal slice cultures (OHSCs) using controlled electrical current[37],[38] and to infuse substrates of known ectoenzymes and determine information about these enzymes in OHSCs[39]−[43] and in vivo.[44] For the in vivo work, direct laser writing by two-photon polymerization was used to manufacture a device (Supporting Information, section S3). A pointed, narrow capillary adjacent to a microdialysis probe was the source ...

The conditions of data set [2]: saline solution, parameter used in simulations, ref Li and Carr, Scheibel, Häckel et al.[65]−[67]. From the text: Table 1 List of Parameters Used in Simulations | column: magnitude
The mark [3] stands for this setting: 37 °C (body temperature, tissue).

Consider `CCOC(=O)C1=C(NC(C)=O)Oc2cc(O)ccc2C1c1cccnc1` (centres unmarked) [HFI-419], for which the “inhibition of YGGFL hydrolysis” value in data set [1] is on record as “dose-dependent inhibition”. As for GGFL [hydrolysis product of YGGFL], the Diffusion coefficients in data set [2] (22 °C (lab temperature)) is given as 5.0 × 10^–10 m^2/s; in data set [2] (setting [3]), 6.5 × 10^–10 m^2/s. In the case of “YGGFL [leucine enkephalin, natural neuropeptide substrate infused through tissue]”, the figures for the Diffusion coefficients in data set [2] (22 °C (lab temperature)) and in data set [2] (setting [3]) were 4.2 × 10^–10 m^2/s and 5.5 × 10^–10 m^2/s, respectively.
